Where “and” joins values, the source holds several entries; their conditions need not be identical. Equal entries are not always repeated. Where two headings read alike, the source gives them in different places.
Columns and labels:
[1] = human, in vivo; cited from earlier work
ischemic brain = settings: rat, in vivo; cited from earlier work
SK-N-MC neurons [2] = test: Morphological scoring of SK-N-MC cells exposed to Abeta42 plus A7R compounds; assay type: cell-based, human
[3] = system: lipoprotein-associated phospholipase-A2; settings: in vivo; cited from earlier work
amyloid = settings: Alzheimer's disease subjects; Solanezumab: Phase 3, mild Alzheimer's disease; cited from earlier work
Sequence of amyloid (P05067 672-711): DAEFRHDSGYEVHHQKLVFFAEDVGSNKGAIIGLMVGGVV

[4] = over 20 epidemiological clinical trials; cited from earlier work
beta-secretase = molecular target: T1, beta-secretase (Homo sapiens, UniProt P56817); settings: in vivo; cited from earlier work
T1 construct: from tissue; host or cells: clinical-trial subjects (in vivo)
T1 sequence (P56817 46-501): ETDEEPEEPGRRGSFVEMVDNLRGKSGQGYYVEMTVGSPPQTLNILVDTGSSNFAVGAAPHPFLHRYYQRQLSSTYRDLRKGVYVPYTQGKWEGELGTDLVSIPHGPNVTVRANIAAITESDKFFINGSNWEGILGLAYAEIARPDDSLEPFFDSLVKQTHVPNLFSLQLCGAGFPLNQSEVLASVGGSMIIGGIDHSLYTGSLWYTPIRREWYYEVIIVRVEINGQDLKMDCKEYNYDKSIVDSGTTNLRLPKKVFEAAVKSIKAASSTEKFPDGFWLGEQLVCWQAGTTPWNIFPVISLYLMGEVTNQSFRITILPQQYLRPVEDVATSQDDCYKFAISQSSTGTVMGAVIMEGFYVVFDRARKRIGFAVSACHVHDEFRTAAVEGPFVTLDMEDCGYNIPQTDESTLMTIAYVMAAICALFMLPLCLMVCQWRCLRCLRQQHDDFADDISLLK

[5] = system: A7R-transfected SK-N-MC human neuroblastoma cells; settings: cited from earlier work; for Intracellular accumulation of the peptide: 100 nanomolar
SK-N-MC neurons [6] = test: Abeta42 immunocytochemistry: intracellular Abeta42 labeling in SK-N-MC cells exposed to Abeta42 plus A7R compounds; assay type: cell-based, human
5HT6 receptor = 5HT6 receptor (Homo sapiens, UniProt P50406); settings: in vivo; cited from earlier work
Sequence of 5HT6 receptor (P50406 whole entry): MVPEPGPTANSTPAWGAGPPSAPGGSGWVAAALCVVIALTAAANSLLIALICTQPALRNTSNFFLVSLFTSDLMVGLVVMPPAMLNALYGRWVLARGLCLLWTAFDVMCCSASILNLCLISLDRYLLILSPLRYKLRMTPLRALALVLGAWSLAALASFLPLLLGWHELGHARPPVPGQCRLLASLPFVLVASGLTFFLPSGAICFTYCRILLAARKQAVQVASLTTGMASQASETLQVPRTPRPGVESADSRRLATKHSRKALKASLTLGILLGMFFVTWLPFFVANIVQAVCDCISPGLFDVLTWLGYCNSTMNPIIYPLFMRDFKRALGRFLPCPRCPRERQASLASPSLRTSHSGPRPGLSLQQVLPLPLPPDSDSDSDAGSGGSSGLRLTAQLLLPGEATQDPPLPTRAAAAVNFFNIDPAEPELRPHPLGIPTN

C57BL/6J mice = test: CognitionWall discrimination learning test, 2-week study; assay type: in vivo
Description: This 2-week study was comprised of 2 groups of C57BL/6J mice as outlined in Table 5. Mice were infused with 100 μl pertussis toxin (3.0×10−3 μg/μl in saline) or 100 μl saline into the tail vein according to Table 5 to affect the BBB. Subsequently, Abeta42 (100 μl of 6.9 μM in saline) was infused into the tail vein. Groups 1 and 2 received 2 cycles of Abeta42 treatment.
Deficits in learning behavior correlated with degenerating neurons in mice treated with pertussis toxin and Abeta42 as compared with untreated mice in the 2-week study. The CognitionWall discrimination learning test was used to test learning behaviors in the mice. Fifteen minutes before the start of the discrimination learning (DL) and reversal learning (RL) task at 16.30 h on the 3th light phase in the Phenotyper, the CognitionWall was placed in front of the reward dispenser spout. After placement, several free rewards were dispensed and standard chow was removed from the feeding station. Mice had to learn to earn their food (Dustless Precision Pellets, 14 mg) by going through the left hole in the wall for the next 2 days (DL1 and DL2). The middle and right hole were deemed incorrect holes and passing through these holes was without any consequences. During the subsequent 2 days, the rewarded hole was switched to the right hole (reversal learning; RL1 and RL2). During DL and RL, one reward was delivered for every fifth entry through the correct hole (FR5 schedule of reinforcement). Mice were not required to make 5 consecutive correct entries (i.e., no chaining requirement). […] Online display of the number of earned rewards was used to evaluate food intake during the experiment. Based on pilot experiments to quantify the number of food rewards required to maintain body weight, mice were fed extra reward pellets when they earn fewer than 100 rewards per day for 2 or more consecutive days. […]

A7R [7] = molecular target: A7R (Rattus norvegicus, UniProt Q05941); settings: rat receptors; read-out: Ki, binding to A7R; cited from earlier work
Sequence of A7R (Rattus norvegicus, UniProt Q05941) (Q05941 23-502): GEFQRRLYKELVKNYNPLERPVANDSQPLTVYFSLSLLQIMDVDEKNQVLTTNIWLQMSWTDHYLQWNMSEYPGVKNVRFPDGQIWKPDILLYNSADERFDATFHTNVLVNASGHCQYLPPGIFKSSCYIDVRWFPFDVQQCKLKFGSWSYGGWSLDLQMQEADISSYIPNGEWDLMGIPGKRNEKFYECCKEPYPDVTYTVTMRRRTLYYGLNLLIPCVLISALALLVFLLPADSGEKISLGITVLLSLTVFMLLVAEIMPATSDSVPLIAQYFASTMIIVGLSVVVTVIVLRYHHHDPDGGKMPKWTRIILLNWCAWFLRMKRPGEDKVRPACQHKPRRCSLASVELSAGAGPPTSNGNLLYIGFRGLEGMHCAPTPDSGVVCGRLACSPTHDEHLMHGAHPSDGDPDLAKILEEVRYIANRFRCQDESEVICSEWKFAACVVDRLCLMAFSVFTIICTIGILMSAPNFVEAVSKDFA

A7R [8] = settings: guinea pig receptors; read-out: Ki, binding to A7R; cited from earlier work
[9] = system: Human neuroblastoma SK-N-MC cells, transfected with A7R; settings: 100 nanomolar for 6 hours; cited from earlier work

In the case of `CC(C)c1c(C(=O)Nc2ccccc2)c(-c2ccccc2)c(-c2ccc(F)cc2)n1CC[C@@H](O)C[C@@H](O)CC(=O)O` [Atorvastatin], the Cognitive measures [1] is listed as “did not improve cognitive measures”.

In the case of VEGF, the “Angiogenesis in the ischemic brain” value (ischemic brain) is given as “enhanced angiogenesis” and the Neurological recovery (ischemic brain) is given as “improved neurological recovery”.

With `c1cnc2cc3c(cc2n1)[C@@H]1CNC[C@H]3C1` [Varenicline] the “Protection of cells from Abeta42 toxicity (observed morphology)” value (SK-N-MC neurons [2]; cells treated with compound and Abeta42, similar at the other time points) was “protected from Abeta42 toxicity”.

In the case of `CCN(CC)CCN(Cc1ccc(-c2ccc(C(F)(F)F)cc2)cc1)C(=O)Cn1c(SCc2ccc(F)cc2)nc(=O)c2c1CCC2` [Darapladib], the BBB leakage [3] is given as “reducing BBB leakage” and the Progression of atherosclerosis [3] is given as “blocked the progression of atherosclerosis”.

In the case of “Solanezumab: yet another anti-amyloid antibody”, the “Clinical trial efficacy end points” value (amyloid) is listed as “failed to reach statistical significance”.

For `CC(C)Cc1ccc(C(C)C(=O)O)cc1` (stereo not drawn) [Ibuprofen], the “Risk of Alzheimer's disease” value [4] is given as “reduce the risk of Alzheimer's disease”.

For `COc1ccc2c(c1)c(CC(=O)O)c(C)n2C(=O)c1ccc(Cl)cc1` [Indomethacin], the “Risk of Alzheimer's disease” value [4] is given as “reduce the risk of Alzheimer's disease”.

For `NC1=N[C@@]2(c3cc(NC(=O)c4ccc(F)cn4)ccc3F)COC[C@H]2CS1` [LY2886721], the “Reason for stopping the clinical studies” value (beta-secretase) is listed as “toxicity”.

In the case of Abeta40, the “Intracellular accumulation of the peptide” value (“Intracellular accumulation” for short) ([5]; 3 hours) is listed as “little detectable accumulation”.

For Alpha-bungarotoxin, the “Morphologic scores 6 hr” value (SK-N-MC neurons [2]) was 2.5, the “Abeta42 immunolabeling scores 1 hr” value (SK-N-MC neurons [6]) was 0/1 and the “Abeta42 immunolabeling scores 2 hr” value (SK-N-MC neurons [6]) was 1/0. The “Abeta42 immunolabeling scores 4 hr” value (SK-N-MC neurons [6]) was 1/0 and the “Inhibition of Abeta42 accumulation in transfected cells” value [5] was “inhibited Abeta42 accumulation”.

For `O=S(=O)(c1ccccc1)c1cnc2c(N3CCNCC3)cccc2c1` [Intepirdine], the “Goals of a pivotal trial” value (5HT6 receptor) is listed as “failed to meet the goals of a pivotal trial”.

With Abeta42 the “Learning performance in words” value (C57BL/6J mice; 2-week pilot study, 6 mice per group) was “did not impact learning impairment”, the “Entries to reach the learning criterion, group value” (C57BL/6J mice; 2 NA scores estimated as ~500) was about 230 entries and the “Entries (entries to 80% correct learning criterion)” value (C57BL/6J mice; individual mouse, 2-week study, NA = too impaired to test, T1, T2 second Abeta42 dose most likely subcutaneous) was 307 and 130 and 180 and 264 and 134 and 370. For the same compound, the Ki (A7R [7]) was 4.1 pM, the Ki (A7R [8]) was 5 pM and the “Intracellular accumulation” value ([5]; 3 hours) was “prominent, irregularly shaped Abeta42-positive deposits”. The “Intracellular accumulation” value ([5]; within 30 minutes) was “some accumulation of Abeta42-positive material” and the Cell death [9] was “cell death”.

For `CN1CCCC1c1cccnc1` (stereo not drawn) [Nicotine], the “Morphologic scores 2 hr” value (SK-N-MC neurons [2]) was 2.7, the “Morphologic scores 4 hr” value (SK-N-MC neurons [2]) was 2.8 and the “Morphologic scores 6 hr” value (SK-N-MC neurons [2]) was 2.8. The “Abeta42 immunolabeling scores 2 hr” value (SK-N-MC neurons [6]) was 1.7 and the “Abeta42 immunolabeling scores 6 hr” value (SK-N-MC neurons [6]) was 0.3.
